Key:
[1] = Lactone to carboxylate form conversion in pH 7.4; format: physicochemical; settings: for rate of conversion from lactone to carboxylate form / degraded at 3 µM: pH 7.4, 37 °C; for degraded at 3 µM: PBS with 10% DMSO, read-out: carboxylate form formed; for lactone to carboxylate conversion versus reference compounds: pH 7.4, reference: exatecan, DXd, SN-38, FL118
Description: 3-2. Lactone to Carboxylate Form Conversion in pH 7.4
Afterwards, it was centrifuged at 4 °C, 2 minutes, and 13,000 RCF conditions, and the supernatant was used as a sample.
The column used was Cortecs C18 2.7 μm, 4.6×50 mm Column, and analysis was conducted under the following conditions. 1) 20 minutes: 5% B, 2) sample injection, 3) 2 minutes: 5% B, 4) 10 minutes: 5% B→50% B, 5) 1 minute: 50% B.
In order to measure changes over time, the sample chamber was maintained at 37 °C, and the sample was set to be injected every measurement time. The measurement times were 0, 20, 40, 60, 90, 120, 180, 240, 300, 360, 480, 600 and 720 minutes.
The content was calculated from the peak area of each lactone and carboxylate. Since the absorption coefficients of lactone and carboxylate are different, the lactone area was obtained by multiplying the carboxylate area by the equation below.

[2] = test system: FaDu cell line; assay: Western blot of DDX5 and anti-apoptotic proteins in FaDu; format: cell-based; settings: 0, 10, 100 nM; for DDX5 degradation ranking: FaDu and A549; for expression of anti-apoptotic proteins: Survivin, cIAP2, Mcl-1, XIAP, 24 hours
Description: 1-1: Confirmation of Suppressive Activity of Expression of Cancer-Related Survival Genes of DDX5, Survivin, Mcl-1, XIAP and cIAP2 Through Western Blot
200,000 FaDu cell lines were seeded per well in a 6-well plate and incubated at constant temperature (37 °C, 5% CO2). […] It was incubated at constant temperature (37 °C, 5% CO2) for 24 hours. The well was treated with 100 μL of RIPA buffer dissolved in protease inhibitor cocktail. […] Protein concentration was determined through protein assay.
Electrophoresis was performed on the gel at 60V.
7 sheets of activated filter paper, PVDF membrane, gel and 7 sheets of filter paper were placed in order in the cassettes of the Trans-Blot® Turbo™ Transfer System, and the lid was closed, and after being inserted into the machine, the protocol started.
The transferred membrane was immersed in blocking buffer and incubated at constant temperature (RT, 1h). Next, it was incubated at 4 °C overnight in primary antibody solution. It was rinsed with TBST buffer for 3 minutes (repeated 3 times). Incubation was performed (RT, 1h) in a secondary antibody solution conjugated with HRP. It was rinsed with TBST buffer for 3 minutes (repeated 3 times).
After soaking the membrane in the ECL substrate for 3 to 5 minutes, the signal was determined by using the ChemiDoc™ MP Imaging System.

[3] = test system: A549 cell line; assay: Western blot of DDX5 and anti-apoptotic proteins in A549; format: cell-based; settings: for DDX5 degradation ranking: FaDu and A549, 0, 10, 100 nM
[4] = biological target: T1, ABCG2 (Homo sapiens, UniProt Q9UNQ0); assay: Sensitivity to ABCG2 transporter; format: cell-based
T1 sequence (Q9UNQ0 1-655): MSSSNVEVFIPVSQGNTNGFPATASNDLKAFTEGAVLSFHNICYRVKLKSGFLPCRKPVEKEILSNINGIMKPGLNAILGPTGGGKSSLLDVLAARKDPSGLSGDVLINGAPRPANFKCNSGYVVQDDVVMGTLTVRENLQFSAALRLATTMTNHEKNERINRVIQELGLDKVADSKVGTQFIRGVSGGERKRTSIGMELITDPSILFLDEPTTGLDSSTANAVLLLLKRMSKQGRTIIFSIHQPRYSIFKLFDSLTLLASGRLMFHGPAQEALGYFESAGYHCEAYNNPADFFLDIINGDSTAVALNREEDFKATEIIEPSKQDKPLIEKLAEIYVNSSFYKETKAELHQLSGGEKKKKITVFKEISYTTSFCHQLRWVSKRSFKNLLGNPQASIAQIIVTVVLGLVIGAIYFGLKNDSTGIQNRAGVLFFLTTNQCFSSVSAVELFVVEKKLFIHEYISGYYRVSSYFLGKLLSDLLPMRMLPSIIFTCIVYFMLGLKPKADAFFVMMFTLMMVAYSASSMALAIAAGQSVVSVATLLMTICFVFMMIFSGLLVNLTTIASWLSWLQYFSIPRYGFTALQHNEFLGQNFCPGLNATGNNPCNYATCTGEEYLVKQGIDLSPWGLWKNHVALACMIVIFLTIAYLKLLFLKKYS

[5] = test system: FaDu; assay: Cell viability assay in FaDu; format: cell-based
Description: (§1) After 24 hours, 100 μL of the drug at 9 concentrations (serial dilution of 1/5 from 1,000 nM) was treated with the cells. […] In this case, a control group that was not treated with the drug (drug concentration 0) was also prepared. It was cultured at constant temperature (37 °C, 5% CO2) for 3 or 6 days. 100 μL of CellTiter-Glo reagent (using CellTiter-Glo® Luminescent Cell Viability Assay kit (Promega, G7571)) was added to each well and pipetted. After incubation at constant temperature (RT) for 10 minutes, luminescence was measured.

[6] = test system: A549; assay: Cell viability assay in A549; format: cell-based; settings: for efficacy / IC50 in ABCG2-overexpressing cells: A549, FIG. 9
Description: as §1

[7] = test system: MDA-MB-468 tumor model; assay: In vivo efficacy in MDA-MB-468 model (EGFR ADCs); set-up: species or system mouse
Description: Cells growing in exponential growth phase were harvested and counted for tumor inoculation.
MDA-MB-468 cells (1×10^7) in 0.2 mL of DPBS with Matrigel were inoculated subcutaneously into the right anterior flank of each mouse. When the average tumor volume reached approximately 215 mm^3, animals were randomly grouped, and then, treatment for drug efficacy studies was initiated.
During routine monitoring, normal behavior such as mobility, food and water consumption (observation only), body weight changes (weighed twice weekly), eye/hair mailing, tumor growth and effectiveness of treatment were checked in animals every day. Deaths and observed clinical signs were recorded based on the number of animals in each subset.
The primary endpoint was determined as a time point when tumor growth could be delayed or the mice could be cured. The two-dimensional size of the tumor was measured twice weekly using a caliper, and the volume was expressed in mm^3 using the equation (V=0.5 a×b^2, where a and b are the long and short diameters of the tumor, respectively).
Tumor growth inhibition (TGI) was calculated for each group.
TGI (%)=[1−(Ti/T0)/(Vi/V0)]×100 […]

[8] = biological target: DDX5 protein (Homo sapiens, UniProt P17844); assay: DDX5 degradation by camptothecin drugs; format: cell-based; settings: FIGS. 7 to 10
Sequence of DDX5 protein (P17844 whole entry): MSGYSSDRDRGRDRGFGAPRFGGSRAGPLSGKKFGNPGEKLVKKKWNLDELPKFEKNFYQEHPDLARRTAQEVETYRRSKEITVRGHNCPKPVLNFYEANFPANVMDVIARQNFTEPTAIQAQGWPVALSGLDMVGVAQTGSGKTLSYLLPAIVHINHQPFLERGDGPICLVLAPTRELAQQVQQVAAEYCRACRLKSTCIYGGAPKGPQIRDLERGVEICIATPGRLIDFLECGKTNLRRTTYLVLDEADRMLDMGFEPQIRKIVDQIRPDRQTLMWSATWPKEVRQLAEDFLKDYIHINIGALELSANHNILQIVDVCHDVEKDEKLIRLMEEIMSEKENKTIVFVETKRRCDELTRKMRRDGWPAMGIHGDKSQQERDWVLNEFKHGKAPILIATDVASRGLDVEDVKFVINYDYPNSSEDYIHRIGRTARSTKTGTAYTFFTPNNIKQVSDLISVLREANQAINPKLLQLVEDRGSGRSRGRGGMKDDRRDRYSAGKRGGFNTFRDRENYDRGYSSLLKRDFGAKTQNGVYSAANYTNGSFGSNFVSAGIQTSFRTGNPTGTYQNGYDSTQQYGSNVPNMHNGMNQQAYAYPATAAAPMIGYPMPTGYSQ

## CC[C@@]1(O)C(=O)OCc2c1cc1n(c2=O)Cc2c-1nc1cc3c(c4c1c2[C@@H](NC(=O)CO)CC4)OCO3 [PBX-7014]
[1]
  rate of conversion from lactone to carboxylate form: 0.8 % per minute
  degraded at 3 µM: > 86%
  lactone to carboxylate conversion versus reference compounds: faster and at a higher rate than other reference compounds
[2]
  DDX5 degradation ranking: followed by 7011, 7016 and 7014
  expression of anti-apoptotic proteins: decrease in the expression of Survivin, cIAP2, Mcl-1 and XIAP as the concentration increased
[3]
  dual mechanism (topoisomerase I inhibition and DDX5 degradation): dual MoA that acts as a degrader of DDX5 (p68)
  DDX5 degradation ranking: followed by 7011, 7016 and 7014

## CC[C@@]1(O)C(=O)OCc2c1cc1n(c2=O)Cc2c-1nc1cc3c(c4c1c2[C@@H](NC(=O)[C@@H](O)C1CC1)CC4)OCO3 [PBX-7024]
[4]
  sensitivity to ABCG2: not affected by ABCG2
[1]
  lactone to carboxylate conversion versus reference compounds: faster and at a higher rate than other reference compounds
[5]; 3 days, FIG. 9
  IC50 compared to Dxd: IC50 of an equal or higher level compared to Dxd
[5]; does not express ABCG2, 3 days
  apoptosis effect: strong apoptosis effect
[6]
  efficacy / IC50 in ABCG2-overexpressing cells: still maintained strong efficacy
[6]; A549, overexpresses ABCG2, 3 days
  apoptosis effect: strong apoptosis effect
[6]; FaDu and A549, 3 days, FIG. 9
  IC50 compared to Dxd: IC50 of an equal or higher level compared to Dxd

## Nimotuzumab-CL2A-FL118: nimotuzumab ADC with CL2A-FL118 (Example 4)
[7]; 1 mpk, 5 mpk and 10 mpk, versus cetuximab-based ADC
  efficacy: better efficacy
[7]; FIG. 22
  in vivo efficacy versus Cetuximab-CL2A-FL118: better efficacy compared to Cetuximab-CL2A-FL118

## CC[C@@]1(O)C(=O)OCc2c1cc1n(c2=O)Cc2c-1nc1cc3c(c4c1c2[C@@H](N)CC4)OCO3 (single isomer, unassigned) [PBX-7011]
[2]
  DDX5 degradation ranking: followed by 7011, 7016 and 7014
  expression of anti-apoptotic proteins: decrease in the expression of Survivin, cIAP2, Mcl-1 and XIAP as the concentration increased
[3]
  DDX5 degradation ranking: followed by 7011, 7016 and 7014

## CC[C@@]1(O)C(=O)OCc2c1cc1n(c2=O)Cc2c-1nc1cc(F)c(C)c3c1c2[C@@H](NC(=O)CO)CC3 [Dxd, reference compound]
[4]
  sensitivity to ABCG2: strongly influenced by ABCG2
[1]
  rate of conversion from lactone to carboxylate form: 0.6 % per minute
  degraded at 3 µM: 76.5%
[6]
  efficacy / IC50 in ABCG2-overexpressing cells: increased IC50 values
[8]
  DDX5 degradation mechanism of action: exerts a mechanism of action (MoA) to degrade DDX5 protein

Reference: patent US20260335456A1, “ANTIBODY-DRUG CONJUGATE HAVING CAMPTOTHECIN-BASED DRUG LINKED TO ANTIBODY HAVING LOW ANTIGEN-BINDING AFFINITY THROUGH LINKER” (PINOTBIO, INC., priority 2022, published 2026)
